Results on 26 molecules are retold here after patent publication US11976075B2, “Inhibitors of the MYST family of lysine acetyl transferases” (Isosterix, Inc., priority 2022, dated 2024).

A value given as a limit tells only on which side of the number the result lay.

The term IC50 denotes the concentration at which inhibition is half-maximal.

One assay deals with T1, Recombinant KAT6A/MOZ (488-778) protein (Homo sapiens, UniProt Q92794).
T1 construct: Recombinant KAT6A/MOZ (488-778) protein (Active motif, Catalog #81223); purchased Active Motif 81223
T1 sequence (Q92794 488-778): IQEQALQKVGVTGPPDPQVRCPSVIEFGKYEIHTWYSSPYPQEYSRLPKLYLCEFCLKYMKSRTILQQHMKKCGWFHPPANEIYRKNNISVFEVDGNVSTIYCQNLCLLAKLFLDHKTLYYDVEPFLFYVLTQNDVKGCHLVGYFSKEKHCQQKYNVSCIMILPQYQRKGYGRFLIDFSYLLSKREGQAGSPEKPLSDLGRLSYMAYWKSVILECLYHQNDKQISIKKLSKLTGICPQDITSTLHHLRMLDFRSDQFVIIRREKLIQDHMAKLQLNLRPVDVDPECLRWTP
Kind of assay: Kat6a AlphaLISA Inhibition Screening Assay. Type of assay: biochemical. The conditions noted are these: 10′ pre-incubation; Table 2; read-out: Kat6A biochemical assay: IC50. As to the method:
The Kat6a inhibitory activity of test compounds was determined using an Alpha Screen-based detection method. The assay reactions were conducted in a volume of 10 μL in Alpha Plate, White 384 well plate (cat #6008280, Perkin Elmer). The enzymatic reactions were performed in assay buffer pH 8.0 (50 mM Tris-HCl, 0.1 mM EDTA, 0.01% Tween-20, 1 mM Dithiothreitol, 0.1% BSA (fatty acid free) and 330 nM TSA (Trichostatin A)). 10 μL reaction volume consisting of 25 nM of Recombinant KAT6A/MOZ (488-778) protein (Active motif, Catalog #81223), 400 nM Acetyl coenzyme A (Catalog #A2056, Sigma), 200 nM of Histone H3 peptide [(amino acids 1-21), biotin-labeled (BPS Biosciences, Catalog #52011,)] and a 10-point dose response curve for test/tool compounds were prepared. Enzyme and compounds solution were pre-incubated in assay plate for 60 or 10 min at room temperature then substrate and Acetyl coenzyme A solution were added to the plate. After addition, the plate was sealed with adhesive seals and incubated for 120 minutes at room temperature.
After 120 minutes of incubation, 5 μL (10 μg/mL) of AlphaLISA anti-acetyl-Lysine acceptor beads (Perkin Elmer, Catalog #AL143C) were added to the plate and it was incubated for 60 minutes at room temperature. Then 10 μL (10 μg/mL) of Alpha Streptavidin donor beads (Perkin Elmer, Catalog #6760002S) were added to the plate which was further incubated for 60 minutes at room temperature. After incubation, the alpha signal was recorded by using Perkin Elmer Envision multi-mode reader.
NA means the compound was not active at the concentration tested. […] NT means not tested.
(In general: In Alpha technology, singlet oxygen from a donor bead excites a nearby acceptor bead.)
In the case of `CCC(=O)NCc1ccn(Cc2cc(OC)c3c(NS(=O)(=O)CC4CCCCC4)noc3c2)n1` [Synthetic Example 9, N-((1-((3-((cyclohexylmethyl)sulfonamido)-4-methoxybenzo[d]isoxazol-6-yl)methyl)-1H-pyrazol-3-yl)methyl)propionamide], the half-maximal inhibitory concentration (IC50) is not above 10 µM.

The assay is the same for the next values; noted with them: 10′ pre-incubation; Table 3; read-out: Kat6A Biochemical assay: IC50.
Turning to `COc1cc(Cn2cccn2)cc2nnc(NS(=O)(=O)CC3CCCCC3)n12` [compound 127, N-(7-((1H-pyrazol-1-yl)methyl)-5-methoxy-[1,2,4]triazolo[4,3-a]pyridin-3-yl)-1-cyclohexylmethanesulfonamide], the IC50 was not above 10 µM.

Still in this assay, the particulars now being: 60′ pre-incubation; Table 2; read-out: Kat6A biochemical assay: IC50.
Take `C=CS(=O)(=O)N1C[C@H]2CN(Cc3cc(OC)c4c(NS(=O)(=O)c5ccccc5OC)noc4c3)C[C@H]2C1` [Synthetic Example 59]: the half-maximal inhibitory concentration (IC50) was not above 10 µM.
On the same count and under the same terms, under `C=CS(=O)(=O)NCc1ccn(Cc2cc(OC)c3c(NS(=O)(=O)CC4CCCCC4)noc3c2)n1` [Synthetic Example 24, N-((1-((3-((cyclohexylmethyl)sulfonamido)-4-methoxybenzo[d]isoxazol-6-yl)methyl)-1H-pyrazol-3-yl)methyl)ethenesulfonamide] stands not above 10 µM; under `C=CS(=O)(=O)NCc1ccn(Cc2cc(OC)c3c(NS(=O)(=O)c4ccccc4F)noc3c2)n1` [Synthetic Example 17, 2-fluoro-N-(4-methoxy-6-((3-(vinylsulfonamidomethyl)-1H-pyrazol-1-yl)methyl)benzo[d]isoxazol-3-yl)benzenesulfonamide], not above 10 µM.
Take `C=CC(=O)NCc1cnn(Cc2cc(OC)c3c(NS(=O)(=O)CC4CCCCC4)noc3c2)c1` [Synthetic Example 4, N-((1-((3-((cyclohexylmethyl)sulfonamido)-4-methoxybenzo[d]isoxazol-6-yl)methyl)-1H-pyrazol-4-yl)methyl)acrylamide]: the 50% inhibitory concentration (IC50) was not above 10 µM.
Still for that read-out and setting: under `C#CC(=O)N(C)Cc1cnn(Cc2cc(OC)c3c(NS(=O)(=O)c4ccccc4OC)noc3c2)c1` [Synthetic Example 45, N-((1-((4-methoxy-3-((2-methoxyphenyl)sulfonamido)benzo[d]isoxazol-6-yl)methyl)-1H-pyrazol-4-yl)methyl)-N-methylpropiolamide] stands not above 10 µM.
On the same count and under the same terms, the value for `C=CC(=O)NCc1cnn(Cc2cc(OC)c3c(NS(=O)(=O)c4ccccc4OC)noc3c2)c1` [Synthetic Example 51, N-((1-((4-methoxy-3-((2-methoxyphenyl)sulfonamido)benzo[d]isoxazol-6-yl)methyl)-1H-pyrazol-4-yl)methyl)acrylamide] was not above 10 µM; that for `C#CC(=O)NCc1cnn(Cc2cc(OC)c3c(NS(=O)(=O)c4ccc(C(=O)OC)cc4)noc3c2)c1` [Synthetic Example 38, methyl 4-(N-(4-methoxy-6-((4-(propiolamidomethyl)-1H-pyrazol-1-yl)methyl)benzo[d]isoxazol-3-yl)sulfamoyl)benzoate] was not above 10 µM; that for `C=CC(=O)NCC(=O)NCc1cnn(Cc2cc(OC)c3c(NS(=O)(=O)c4ccccc4OC)noc3c2)c1` [Synthetic Example 61, N-[2-[[1-[[4-methoxy-3-[(2-methoxyphenyl)sulfonylamino]-1,2-benzoxazol-6-yl]methyl]pyrazol-4-yl]methylamino]-2-oxo-ethyl]prop-2-enamide] was not above 10 µM.
The same measure, in the same setting: the value for `C#CC(=O)N1C[C@H]2CN(Cc3cc(OC)c4c(NS(=O)(=O)c5ccccc5OC)noc4c3)C[C@H]2C1` [Synthetic Example 44, 2-methoxy-N-(4-methoxy-6-(((3aR,6aS)-5-propioloylhexahydropyrrolo[3,4-c]pyrrol-2(1H)-yl)methyl)benzo[d]isoxazol-3-yl)benzenesulfonamide] was not above 10 µM.
With `C=CS(=O)(=O)NCc1ccn(Cc2cc(OC)c3c(NS(=O)(=O)c4c(OC)cccc4OC)noc3c2)n1` [Synthetic Example 19, 2,6-dimethoxy-N-(4-methoxy-6-((3-(vinylsulfonamidomethyl)-1H-pyrazol-1-yl)methyl)benzo[d]isoxazol-3-yl)benzenesulfonamide], the concentration for half-maximal inhibition (IC50) is not above 10 µM.
For `C=CC(=O)NCc1ccnc(-c2cc(C)cc(C(=O)NNS(=O)(=O)c3c(OC)cccc3OC)c2)c1` [Synthetic Example 15, N-((2-(3-(2-((2,6-dimethoxyphenyl)sulfonyl)hydrazine-1-carbonyl)-5-methylphenyl)pyridin-4-yl)methyl)acrylamide], the concentration for half-maximal inhibition (IC50) is not above 10 µM.

Staying with this assay, now noted: 60′ pre-incubation; Table 3; read-out: Kat6A Biochemical assay: IC50.
Regarding `C=CS(=O)(=O)NC1CCN(Cc2cc(OC)c3c(NS(=O)(=O)c4ccccc4OC)noc3c2)CC1` [compound 77, 2-methoxy-N-(4-methoxy-6-((4-(vinylsulfonamido)piperidin-1-yl)methyl)benzo[d]isoxazol-3-yl)benzenesulfonamide], the IC50 was not above 10 µM.
The same measure, in the same setting: the value for `COc1ccccc1S(=O)(=O)Nc1noc2cc(Cn3cc(CNS(=O)(=O)c4ccc(F)cc4)cn3)cc(OC)c12` [compound 78, N-(6-((4-(((4-fluorophenyl)sulfonamido)methyl)-1H-pyrazol-1-yl)methyl)-4-methoxybenzo[d]isoxazol-3-yl)-2-methoxybenzenesulfonamide] was not above 10 µM.
Same read-out and setting: under `C#CC(=O)NCCCOCc1cc(OC)c2c(NS(=O)(=O)c3cc(CC)ccc3OC)noc2c1` [compound 89, N-(3-((3-((5-ethyl-2-methoxyphenyl)sulfonamido)-4-methoxybenzo[d]isoxazol-6-yl)methoxy)propyl) propiolamide] stands not above 10 µM; under `C#CC(=O)N1CCc2c(cnn2Cc2cc(OC)c3c(NS(=O)(=O)c4cc(CC)ccc4OC)noc3c2)C1` [105a, 5-ethyl-2-methoxy-N-(4-methoxy-6-((5-propioloyl-4,5,6,7-tetrahydro-1H-pyrazolo[4,3-c]pyridin-1-yl)methyl)benzo[d]isoxazol-3-yl)benzenesulfonamide], not above 10 µM.
Same read-out and setting: under `C#CC(=O)N1CCC(c2ccnc(-c3cc(C)cc(C(=O)NNS(=O)(=O)c4ccccc4F)c3)c2)C1` (centres unmarked) [compound 92, 2-fluoro-N′-(3-methyl-5-(4-(1-propioloylpyrrolidin-3-yl)pyridin-2-yl)benzoyl)benzenesulfonohydrazide] stands not above 10 µM; under `COc1ccccc1S(=O)(=O)Nc1noc2cc(Cn3cc(CNS(=O)(=O)c4ccc(Cl)nc4)cn3)cc(OC)c12` [compound 83, 6-chloro-N-((1-((4-methoxy-3-((2-methoxyphenyl)sulfonamido)benzo[d]isoxazol-6-yl)methyl)-1H-pyrazol-4-yl)methyl)pyridine-3-sulfonamide], not above 10 µM; under `C#CC(=O)N1CCN(c2cccc(-c3cc(OC)c4c(NS(=O)(=O)CC5CCCCC5)noc4c3)c2)CC1` [compound 117, 1-cyclohexyl-N-(4-methoxy-6-(3-(4-propioloylpiperazin-1-yl)phenyl)benzo[d]isoxazol-3-yl) methanesulfonamide], not above 10 µM.
For `COc1ccccc1S(=O)(=O)Nc1noc2cc(Cn3cc(CNS(=O)(=O)c4cccnc4Cl)cn3)cc(OC)c12` [compound 84, 2-chloro-N-((1((4methoxy3((2methoxyphenyl)sulfonamido)benzo[d]isoxazol-6-yl)methyl)-1H-pyrazol-4-yl)methyl) pyridine-3-sulfonamide], the IC50 was not above 10 µM.
With `C#CC(=O)N1CCCN(c2cccc(-c3cc(OC)c4c(NS(=O)(=O)c5c(OC)cccc5OC)noc4c3)c2)CC1` [compound 100, 2,6-dimethoxy-N-(4-methoxy-6-(3-(4-propioloyl-1,4-diazepan-1-yl)phenyl)benzo[d]isoxazol-3-yl)benzenesulfonamide], the half-maximal inhibitory concentration (IC50) is not above 10 µM.
Same read-out and setting: the value for `C=CC(=O)N1CCC(c2ccccc2-c2cc(OC)c3c(NS(=O)(=O)c4c(OC)cccc4OC)noc3c2)C1` (centres unmarked) [compound 75, N-(6-(2-(1-acryloylpyrrolidin-3-yl)phenyl)-4-methoxybenzo[d]isoxazol-3-yl)-2,6-dimethoxybenzenesulfonamide] was more than 10 µM; that for `C#CC(=O)N1CCCN(c2cnc(-c3cc(OC)c4c(NS(=O)(=O)c5cc(CC)ccc5OC)noc4c3)s2)CC1` [compound 104, 5-ethyl-2-methoxy-N-(4-methoxy-6-(5-(4-propioloyl-1,4-diazepan-1-yl)thiazol-2-yl)benzo[d]isoxazol-3-yl) benzenesulfonamide] was not above 10 µM; that for `C#CC(=O)N1Cc2cnn(Cc3cc(OC)c4c(NS(=O)(=O)c5cc(CC)ccc5OC)noc4c3)c2C1` [compound 99, 5-ethyl-2-methoxy-N-(4-methoxy-6-((5-propioloyl-5,6-dihydropyrrolo[3,4-c]pyrazol-1(4H)-yl)methyl)benzo[d]isoxazol-3-yl)benzenesulfonamide] was not above 10 µM.
Take `C#CC(=O)N1CCN(c2cccc(-c3cc(OC)c4c(NS(=O)(=O)NC5CCCCC5)noc4c3)c2)CC1` [compound 111]: the concentration for half-maximal inhibition (IC50) was not above 10 µM.
